The text below walks through data of patent publication US7960406B2, “Diketo substituted pyrrolo[2,3-c] pyridines” (priority 2008, dated 2011).

Each structure is given as a SMILES string.

Usually EC50 stands for the concentration giving half of the maximal effect.

For one assay, the system named is HIV-1 single-round infectious reporter virus. The assay can be described thus: Single-round infectious HIV-1 luciferase reporter virus infection of HeLa CD4 cells. Format: cell-based. As to conditions: Human immunodeficiency virus 1, HeLa, 72 h. On the procedure: • Virus production—Human embryonic Kidney cell line, 293T, was propagated in Dulbecco's Modified Eagle Medium (Invitrogen, Carlsbad, Calif.) containing 10% fetal Bovine serum (FBS, Sigma, St. Louis, Mo.). • Virus infection—Human epithelial cell line, HeLa, expressing the HIV-1 receptor CD4 was propagated in Dulbecco's Modified Eagle Medium (Invitrogen, Carlsbad, Calif.) containing 10% fetal Bovine serum (FBS, Sigma, St. Louis, Mo.) and supplemented with 0.2 mg/mL GENETICIN® (Invitrogen, Carlsbad, Calif.). • Virus—Single-round infectious reporter virus was produced by co-transfecting human embryonic Kidney 293 cells with an HIV-1 envelope DNA expression vector and a proviral cDNA containing an envelope deletion mutation and the luciferase reporter gene inserted in place of HIV-1 nef sequences (Chen et al., Ref. 41). Transfections were performed using Lipofectamine Plus reagent as described by the manufacturer (Invitrogen, Carlsbad, Calif.). Experimental Procedure:
1. HeLa CD4 cells were plated in 96 well plates at a cell density of 1×10^4 cells per well in 100 μl Dulbecco's Modified Eagle Medium containing 10% fetal Bovine serum and incubated overnight.
2. Compound was added in a 2 μl dimethylsulfoxide solution, so that the final assay concentration would be ≦10 μM.
3. 100 μl of single-round infectious reporter virus in Dulbecco's Modified Eagle Medium was then added to the plated cells and compound at an approximate multiplicity of infection (MOI) of 0.01, resulting in a final volume of 200 μl per well.
4. Virally-infected cells were incubated at 37° C., in a CO2 incubator, and harvested 72 h after infection.
5. Viral infection was monitored by measuring luciferase expression from viral DNA in the infected cells using a luciferase reporter gene assay kit, as described by the manufacturer (Roche Molecular Biochemicals, Indianapolis, Ind.). Infected cell supernatants were removed and 50 μl of lysis buffer was added per well. After 15 minutes, 50 μl of freshly-reconstituted luciferase assay reagent was added per well. Luciferase activity was then quantified by measuring luminescence using a Wallac MICROBETA® scintillation counter.
6. The percent inhibition for each compound was calculated by quantifying the level of luciferase expression in cells infected in the presence of each compound as a percentage of that observed for cells infected in the absence of compound and subtracting such a determined value from 100.
7. An EC50 provides a method for comparing the antiviral potency of the compounds of this disclosure. The effective concentration for fifty percent inhibition (EC50) was calculated with the Microsoft Excel Xlfit curve fitting software. For each compound, curves were generated from percent inhibition calculated at 10 different concentrations by using a four parameter logistic model (model 205). Table 1 is the key for the data in Table 2.
A general note: Reporter assays use an easily measured gene product as a stand-in for the process of interest.
The molecule `O=C(C(=O)N1CCn2c(nnc2-c2ccccc2)C1)c1c[nH]c2cccc(F)c12` [Compound A1] returned a concentration giving a half-maximal response (EC50) of 217 nM.

`COc1cnc(-n2cnc(C)n2)c2[nH]cc(C(=O)C(=O)N3CCn4c(nnc4-c4ccccc4)C3)c12` [Compound B1] had a 50% effective concentration (EC50) of 0.95 nM.

Molecule `COc1cnc(-n2cnc(C)n2)c2[nH]cc(C(=O)C(=O)N3CCn4c(nnc4-c4ccccc4C)C3)c12` [Compound C1] registered a concentration giving a half-maximal response (EC50) of 11.8 nM.

In the case of `COc1cnc(-n2cnc(C)n2)c2[nH]cc(C(=O)C(=O)N3CCn4c(nnc4-c4ccccc4F)C3)c12` [Compound C2], the concentration for a half-maximal effect (EC50) is 0.29 nM.

For the molecule `COc1cnc(-n2cnc(C)n2)c2[nH]cc(C(=O)C(=O)N3CCn4c(nnc4-c4ccccc4C(N)=O)C3)c12` [Compound C4], the half-maximal effective concentration (EC50) is over 500 nM.

`COc1cnc(-n2cnc(C)n2)c2[nH]cc(C(=O)C(=O)N3CCn4c(nnc4-c4ccccc4O)C3)c12` [Compound C7] displayed an EC50 of 1.91 nM.

In turn, `COc1cnc(-n2ccnn2)c2[nH]cc(C(=O)C(=O)N3CCn4c(-c5ccccc5)cnc4C3)c12` [Compound D2] gave an EC50 of 0.05 nM.

As to `COc1cnc(-n2cnc(C)n2)c2[nH]cc(C(=O)C(=O)N3CCn4c(-c5ccccc5C#N)cnc4C3)c12` [Compound F5], the EC50 is 98.9 nM.

In the case of `COc1cnc(-n2cnc(C)n2)c2[nH]cc(C(=O)C(=O)N3CCn4c(-c5ccncc5)cnc4C3)c12` [Compound F6], the EC50 was determined as 13.6 nM.

As for `COc1cnc(-n2cnc(C)n2)c2[nH]cc(C(=O)C(=O)N3CCn4c(nc(C)c4-c4ccccn4)C3)c12` [Compound H2], the EC50 was found to be 1 nM.

Regarding `COc1cnc(-n2cnc(C)n2)c2[nH]cc(C(=O)C(=O)N3CCn4c(nc(C(F)(F)F)c4-c4ccccn4)C3)c12` [Compound I3], the EC50 is 0.59 nM.

As for `COc1cnc(-c2cc(CO)[nH]n2)c2[nH]cc(C(=O)C(=O)N3CCn4c(-c5ccccc5)cnc4C3)c12` [Compound J1], the EC50 is 0.05 nM.

As for `COc1cnc(-n2cnc(C)n2)c2[nH]cc(C(=O)C(=O)N3CCc4c(c(-c5ccccc5)nn4-c4ccccc4)C3)c12` [Compound K1], the 50% effective concentration (EC50) was 2.6 nM.

`COc1cnc(-n2cnc(C)n2)c2[nH]cc(C(=O)C(=O)N3CCc4c(cnn4-c4cc(C)nc(C)n4)C3)c12` [Compound L2]: the EC50 came to 331 nM.

`COc1cnc(-n2cnc(C)n2)c2[nH]cc(C(=O)C(=O)N3CCc4c(cnn4-c4ccccc4)C3)c12` [Compound L3] yielded a half-maximal effective concentration (EC50) of 0.03 nM.

With `COc1cnc(-n2cnc(C)n2)c2[nH]cc(C(=O)C(=O)N3CCc4c(ncn4-c4ccccc4)C3)c12` [Compound M1], the midpoint of the response, the EC50, lay at 0.07 nM.

Take `COc1cnc(-n2cnc(C)n2)c2[nH]cc(C(=O)C(=O)N3CCn4c(cnc4-c4ccccc4)C3)c12` [Compound N1]: the EC50 amounted to 0.06 nM.

In the case of `O=C(C(=O)N1CCN2C(c3ccccc3)=NCC2C1)c1c[nH]c2c(-n3ccnn3)ncc(F)c12` (stereo not drawn) [Compound O1], the EC50 is 13 nM.

Still in this assay, the particulars now being: Human immunodeficiency virus 1, HeLa, 72 h, read-out: EC50 Group from Table 1.
As for `COc1cnc(-n2ccnn2)c2[nH]cc(C(=O)C(=O)N3CCn4c(nnc4-c4ccccc4)C3)c12` [Compound B2], the concentration for a half-maximal effect (EC50) is under 500 nM.

For `O=C(C(=O)N1CCn2c(nnc2-c2ccccc2)C1)c1c[nH]c2c(-n3ccnn3)ncc(F)c12` [Compound B3], the EC50 is under 500 nM.

On to `COCc1ncn(-c2ncc(OC)c3c(C(=O)C(=O)N4CCn5c(nnc5-c5ccccc5)C4)c[nH]c23)n1` [Compound B4], for which the half-maximal effective concentration (EC50) is under 500 nM.

With `COc1cnc(-n2cnc(C)n2)c2[nH]cc(C(=O)C(=O)N3CCn4c(nnc4-c4ccccn4)C3)c12` [Compound C3], the EC50 is under 500 nM.

For `COc1ccccc1-c1nnc2n1CCN(C(=O)C(=O)c1c[nH]c3c(-n4cnc(C)n4)ncc(OC)c13)C2` [Compound C5], the EC50 was under 500 nM.

As to `COc1cnc(-n2cnc(C)n2)c2[nH]cc(C(=O)C(=O)N3CCn4c(nnc4-c4ccccc4Cl)C3)c12` [Compound C6], the EC50 was under 500 nM.

Regarding `COc1cnc(-n2cnc(C)n2)c2[nH]cc(C(=O)C(=O)N3CCn4c(nnc4-c4cccc(C)c4)C3)c12` [Compound C8], the EC50 was under 500 nM.

Consider `COc1cnc(-n2cnc(C)n2)c2[nH]cc(C(=O)C(=O)N3CCn4c(-c5ccccc5)cnc4C3)c12` [Compound D1], for which the EC50 is under 500 nM.

For the molecule `COc1cnc(-c2cncnc2)c2[nH]cc(C(=O)C(=O)N3CCn4c(-c5ccccc5)cnc4C3)c12` [Compound D3], the EC50 is under 500 nM.

Take `COc1cnc(-n2cnc(C)n2)c2[nH]cc(C(=O)C(=O)N3CCn4c(-c5ccccn5)cnc4C3)c12` [Compound E1]: the EC50 was under 500 nM.

In the case of `COc1cnc(-n2cnc(C)n2)c2[nH]cc(C(=O)C(=O)N3CCn4c(-c5cccc(O)c5)cnc4C3)c12` [Compound F1], the EC50 is under 500 nM.

`COc1cnc(-n2cnc(C)n2)c2[nH]cc(C(=O)C(=O)N3CCn4c(-c5cccnc5)cnc4C3)c12` [Compound F2]: the half-maximal effective concentration (EC50) is under 500 nM.

Regarding `COc1cnc(-n2cnc(C)n2)c2[nH]cc(C(=O)C(=O)N3CCn4c(-c5ccc(O)cc5)cnc4C3)c12` [Compound F3], the concentration giving a half-maximal response (EC50) was under 500 nM.

Regarding `COc1ccc(-c2cnc3n2CCN(C(=O)C(=O)c2c[nH]c4c(-n5cnc(C)n5)ncc(OC)c24)C3)cn1` [Compound F4], the 50% effective concentration (EC50) is under 500 nM.

For `COc1cnc(-n2cnc(C)n2)c2[nH]cc(C(=O)C(=O)N3CCn4c(nc(Cl)c4-c4ccccc4)C3)c12` [Compound G1], the concentration giving a half-maximal response (EC50) was under 500 nM.

For the molecule `COc1cnc(-n2cnc(C)n2)c2[nH]cc(C(=O)C(=O)N3CCn4c(nc(Br)c4-c4ccccc4)C3)c12` [Compound G2], the EC50 is under 500 nM.

Regarding `COc1nc2n(c1-c1ccccc1)CCN(C(=O)C(=O)c1c[nH]c3c(-n4cnc(C)n4)ncc(OC)c13)C2` [Compound H1a], the EC50 was under 500 nM.

`COc1nc2n(c1-c1ccccn1)CCN(C(=O)C(=O)c1c[nH]c3c(-n4cnc(C)n4)ncc(OC)c13)C2` [Compound H1b]: the EC50 is under 500 nM.

Regarding `COc1cnc(-n2cnc(C)n2)c2[nH]cc(C(=O)C(=O)N3CCn4c(nc(C(F)(F)F)c4-c4ccccc4)C3)c12` [Compound I1], the half-maximal effective concentration (EC50) was under 500 nM.

As for `O=C(C(=O)N1CCn2c(nc(C(F)(F)F)c2-c2ccccc2)C1)c1c[nH]c2c(-n3ccnn3)ncc(F)c12` [Compound I2], the EC50 is under 500 nM.

`COc1cnc(-c2cc(C(C)(C)O)[nH]n2)c2[nH]cc(C(=O)C(=O)N3CCn4c(-c5ccccc5)cnc4C3)c12` [Compound J2]: the EC50 was under 500 nM.

For `COc1cnc(-n2cnc(C)n2)c2[nH]cc(C(=O)C(=O)N3CCc4c(cnn4-c4ncccn4)C3)c12` [Compound L1], the concentration giving a half-maximal response (EC50) is under 500 nM.

On to `COc1cnc(-n2cnc(C)n2)c2[nH]cc(C(=O)C(=O)N3CCc4c(cnn4-c4ccccn4)C3)c12` [Compound L4], for which the EC50 was under 500 nM.

Turning to `COc1cnc(-n2cnc(C)n2)c2[nH]cc(C(=O)C(=O)N3CCc4c(cnn4-c4cnccn4)C3)c12` [Compound L5], the half-maximal effective concentration (EC50) was under 500 nM.

Regarding `COc1cnc(-n2cnc(C)n2)c2[nH]cc(C(=O)C(=O)N3CCc4c(ncn4-c4ccccn4)C3)c12` [Compound M2], the EC50 is under 500 nM.

For the molecule `COc1cnc(-n2cnc(C)n2)c2[nH]cc(C(=O)C(=O)N3CCn4c(cnc4-c4ccc(F)cc4F)C3)c12` [Compound N2], the EC50 is under 500 nM.

Regarding `COc1cnc(-n2cnc(C)n2)c2[nH]cc(C(=O)C(=O)N3CCN4C(c5ccccn5)=NCC4C3)c12` (stereo not drawn) [Compound O2], the EC50 was under 500 nM.
